From patent US6858633B1, “Substituted 2-arylbenzazole compounds and their use as antitumour agents” (Cancer Research Technology Limited, priority 1999, dated 2005)
Structures can show the parent of a compound that is named as a salt.

Experiments:
MCF-7 = test: In vitro cytotoxicity, 3-day MTT assay, MCF-7; format: cell-based, human; settings: for IC50: 3-day MTT assay
Method: (§1) In carrying out the following cytoloxicity assays, the method used corresponds substantially to the following example: • Cells were maintained in a continuous logarithmic culture in RMPI 1640 with L-glutamine medium, supplemented with 10% fetal calf serum, penicillin (100 IU/ml) and streptomycin (100 μg/ml). The cells were mildly trypsinized for passage and for use in assays. • On day one, 180 μl of trypsinized tumour cells (5×10^3 ml^−1) were placed in the wells of 96-well, flat-bottom microtiter plates. Columns 1 and 12 were filled with 300 μl medium to protect from evaporation. The plates were incubated for 24 hours at 37° C. and 5% CO2 in air to allow the cells to adhere and resume exponential growth prior to the addition of drugs. The compounds being tested were dissolved in DMSO and stored as 10 mM stock solutions at 4° C., protected from light. […] 20 μl of drug dilution was added to the other wells with the lowest concentration in column 3 and the highest concentration in column 11. The plates were incubated for 72 hours at 37° C. and 5% CO2 in air. Each compound was tested in triplicate. At the time of drug addition, a plate of untreated cells was read to provide an initial optical density value for use in the calculation of the IC50. • On day five the plates were read. 50 μl MTT (1 mg/ml^−1) was added per well and the plates incubated for a further 4 hours. The MTT is metaboliscd to form a blue formazan product. The MTT solution was aspirattd and 125 μl DMSO:glycine buffer (4:1) was added. The plates were placed on a plate shaker until the fornazan crystals had dissolved and absorbance was ready at 550 nm on a plate reader. • For each compound tested, a dose response curve was obtained and the IC50 statue (drug concentration at 50% inhibition of cell growth) was calculated.
(§2) (n=8) for a range of compounds in relation to MCF-7 and MDA 468 cell lines.

MDA468 = test: In vitro cytotoxicity, 3-day MTT assay, MDA468; format: cell-based
Method: as §1, §2

COLO205 xenografts = test: In vivo COLO205 xenograft study (FIG. 2)
[1] = test system: ER positive MCF-7 human breast tumor xenografts; settings: for in vivo growth retardation of MCF-7 xenografts: prodrugs
[2] = test system: ER negative MT-1 human breast tumor xenografts; settings: for in vivo growth retardation of MT-1 xenografts: prodrugs; for tumor growth inhibition in MT-1 xenografts: surviving mice treated with prodrug
[3] = rats, i.v., typical dose 25 mg/kg
[4] = Stability in plasma in vitro; format: in vitro ADME, rat; settings: hydrochloride salts; rat and other mammalian plasma
[5] = 72 h, asterisked values, IC50 concentration in μM

7-Fluoro-2-(4′-imino-3′-methylphenyl)benzothiazole [Ih]
IC50 (MCF-7; n=8): 0.00239 µM | IC50 (MDA468; n=8): 0.0103 µM

Cc1cc(-c2nc3c(F)cccc3s2)ccc1N [Compound Ia]
IC50 (MCF-7; n=8): < 0.0001 µM | IC50 (MDA468; n=8): 0.00013 µM

Cc1cc(-c2nc3cc(I)ccc3s2)ccc1N [Compound Iak, 5-Iodo-2-(4′-amino-3′-methylphenyl)benzothiazole]
melting point: 200 to 202 °C | IC50 (MCF-7; Homo sapiens, MCF7, 72 h, n=8): 0.493 µM | IC50 (MDA468; [5]): 80.9 µM

Cc1cc(-c2nc3ccc(F)cc3s2)ccc1NC(=O)C(C)N (centres unmarked) [Iac, 6-Fluoro-2-(4′-amino-3′-Methylphenyl)benzothiazole Alanyl Amide Hydrochloride Salt]
IC50 (MCF-7; n=8): 0.044 µM | IC50 (MDA468; n=8): 0.297 µM

Cc1cc(-c2nc3ccc(F)cc3s2)ccc1NC(=O)C(N)CCCCN (centres unmarked) [Iae, 6-Fluoro-2-(4′-amino-3′-methylphenyl)benzothiazole Lysyl Amide Dihydrochloride Salt]
IC50 (MCF-7; n=8): 0.147 µM | IC50 (MDA468; n=8): 0.328 µM

Cc1cc(-c2nc3cc(F)ccc3s2)ccc1NC(=O)C(C)N.Cl (centres unmarked) [Iaf, 5-Fluoro-2-(4′-amino-3′-metbylphenyl)benzothiazole Alanyl Amide Hydrochloride Salt]
IC50 (MCF-7; n=8): 0.00589 µM | IC50 in MCF-7 cells, fold lower than that of other amido prodrugs (MCF-7; compared with other prodrugs): > 5 fold | IC50 (MDA468; n=8): 0.0377 µM

Cc1cc(-c2nc3cccc(I)c3s2)ccc1N [Ial, 7-Iodo-2-(4′-amino-3′-methylphenyl)benzothiazole]
IC50 (MCF-7; Homo sapiens, MCF7, 72 h, n=8): 0.0283 µM | IC50 (MDA468; 72 h, n=8): 0.323 µM

CC(=O)Nc1ccc(-c2nc3cc(F)ccc3s2)cc1C [Iam, 5-Fluoro-2-(4′-acetamido-3′-methylphenyl)benzothiazole]
melting point: 219 to 221 °C | IC50 (MCF-7; Homo sapiens, MCF7, 72 h, asterisked values, IC50 concentration in μM): 7.64 µM | IC50 (MDA468; [5]): 5.84 µM

N#Cc1cc(-c2nc3cc(F)ccc3s2)ccc1N [Ian, 5-Fluoro-2-(4′-amino-3′-cyanophenyl)benzothiazole]
melting point: 268 to 270 °C | IC50 (MCF-7; Homo sapiens, MCF7, 72 h, n=8): < 0.0001 µM | IC50 (MDA468; 72 h, n=8): < 0.0001 µM

Nc1ccc(-c2nc3cc(F)ccc3s2)cc1CO [Iaq, 5-Fluoro-2-(4′-amino-3′-(hydroxymethyl)phenyl)benzothiazole]
melting point: 242 to 245 °C | IC50 (MCF-7; Homo sapiens, MCF7, 72 h, n=8): < 0.0001 µM | IC50 (MDA468; 72 h, n=8): 0.00043 µM

Cc1cc(-c2nc3cc(F)c(F)cc3s2)ccc1NC(=O)C(C)N (centres unmarked) [Iar, 5,6-Difluoro-2-(4′-amino-3′-methylphenyl)benzothiazole Alany Amide Hydrochloride Salt]
IC50 (MCF-7; n=8): 0.0331 µM | IC50 (MDA468; n=8): 0.217 µM

Cc1cc(-c2nc3cc(F)c(F)cc3s2)ccc1NC(=O)C(N)CCCCN (centres unmarked) [Ias, 5,6-Difluoro-2-(4′-amino-3′-methylphenyl)benzothiazole Lysyl Amide Dihydrochloride]
IC50 (MCF-7; n=8): 0.0307 µM | IC50 (MDA468; n=8): 0.302 µM

Nc1ccc(-c2nc3c(F)cccc3s2)cc1 [Ic, 4-Fluoro2-(4-aminophenyl)benzothiazole]
IC50 (MCF-7; Homo sapiens, MCF7, 72 h, n=8): 0.00854 µM | IC50 (MDA468; 72 h, n=8): 0.0294 µM

Nc1ccc(-c2nc3ccc(F)cc3s2)cc1 [Id, 6-Fluoro2-(4′-aminophenyl)benzothiazole]
IC50 (MCF-7; Homo sapiens, MCF7, 72 h, n=8): < 0.0001 µM | IC50 (MDA468; 72 h, n=8): 0.0481 µM

Cc1cc(-c2nc3c(F)c(F)ccc3s2)ccc1N [Ie, 4,5-Difluoro-2-(4′-amino-3′-methylphenyl)benzothiazole]
IC50 (MCF-7; Homo sapiens, MCF7, 72 h, n=8): 0.00064 µM | IC50 (MDA468; 72 h, n=8): 0.00067 µM

Cc1cc(-c2nc3c(F)cc(F)cc3s2)ccc1N [If]
IC50 (MCF-7; n=8): < 0.0001 µM | IC50 (MDA468; n=8): 0.00535 µM

Cc1cc(-c2nc3cc(F)cc(F)c3s2)ccc1N [Ig, 5,7-Difluoro-2-(4′-amino3′-methylphenyl)benzothiazole]
IC50 (MCF-7; Homo sapiens, MCF7, 72 h, n=8): 0.0009 µM | IC50 (MDA468; 72 h, n=8): 0.0044 µM

Cc1cc(-c2nc3cc(F)c(F)cc3s2)ccc1N [Ii, 5,6-Difluoro-2-(4′-amino-3′-methylphenyl)benzothiazole]
IC50 (MCF-7; Homo sapiens, MCF7, 72 h, n=8): < 0.0001 µM | IC50 (MDA468; 72 h, n=8): 0.00355 µM

Nc1ccc(-c2nc3cc(F)ccc3s2)cc1 [Il, 5-Fluoro-2-(4′-aminophenyl)benzothiazole]
IC50 (MCF-7; Homo sapiens, MCF7, 72 h, n=8): < 0.0001 µM | IC50 (MDA468; 72 h, n=8): < 0.0001 µM

Nc1ccc(-c2nc3c(F)cccc3s2)cc1I [Im, 4-Fluoro-2-(4′-amino-3′-iodophenyl)benzothiazole]
IC50 (MCF-7; Homo sapiens, MCF7, 72 h, n=8): 0.00788 µM | IC50 (MDA468; 72 h, n=8): 0.00911 µM

Nc1ccc(-c2nc3cc(F)ccc3s2)cc1I [In, 5-Fluoro-2-(4′-amino-3′-iodophenyl)benzothiazole]
IC50 (MCF-7; Homo sapiens, MCF7, 72 h, n=8): < 0.0001 µM | IC50 (MDA468; 72 h, n=8): < 0.0001 µM

Nc1ccc(-c2nc3ccc(F)cc3s2)cc1I [Io, 6-Fluoro-2-(4′-amino-3′-iodophenyl)benzothiazole]
IC50 (MCF-7; Homo sapiens, MCF7, 72 h, n=8): < 0.0001 µM | IC50 (MDA468; 72 h, n=8): < 0.0001 µM

Nc1ccc(-c2nc3c(F)cccc3s2)cc1Cl [Ip, 4-Fluoro-2-(4′-amino-3′-chlorophenyl)benzothiazole]
IC50 (MCF-7; Homo sapiens, MCF7, 72 h, n=8): 0.00095 µM | IC50 (MDA468; 72 h, n=8): 0.00193 µM

Nc1ccc(-c2nc3cc(F)ccc3s2)cc1Cl [Iq, 5-Fluoro-2-(4′-amino-3′-chlorophenyl)benzothiazole]
IC50 (MCF-7; Homo sapiens, MCF7, 72 h, n=8): 0.00709 µM | IC50 (MDA468; 72 h, n=8): 0.0189 µM

Nc1ccc(-c2nc3ccc(F)cc3s2)cc1Cl [Ir, 6-Fluoro-2-(4′-amino3′chlorophenYl)bcnzothiazole]
IC50 (MCF-7; n=8): 0.00408 µM | IC50 (MDA468; n=8): 0.0117 µM

Nc1ccc(-c2nc3c(F)cccc3s2)cc1Br [Is, 4-Fluoro-2-(4′amino-3′-bromophenyl)benzothiazole]
IC50 (MCF-7; Homo sapiens, MCF7, 72 h, n=8): 0.0382 µM | IC50 (MDA468; 72 h, n=8): 0.024 µM

Nc1ccc(-c2nc3cc(F)ccc3s2)cc1Br [It, 5-Fluoro-2-(4′-amino-3′-bromophenyl)benzothiazole]
IC50 (MCF-7; Homo sapiens, MCF7, 72 h, n=8): < 0.0001 µM | IC50 (MDA468; 72 h, n=8): 0.0002 µM

Nc1ccc(-c2nc3ccc(F)cc3s2)cc1Br [Iu, 6-Fluoro2-(4′-amino-3′-bromophenyl)benzothiazole]
IC50 (MCF-7; Homo sapiens, MCF7, 72 h, n=8): 0.0455 µM | IC50 (MDA468; 72 h, n=8): 0.0687 µM

CC(N)C(=O)Nc1ccc(-c2nc3ccccc3s2)cc1.Cl (centres unmarked) [Iv, 2-(4′-Aminophenyl)benzothiazole Alanyl Amide Hydrochloride Salt]
IC50 (MCF-7; n=8): 0.06 µM | tumour growth inhibition, COLO205 xenografts (FIG. 2) (COLO205 xenografts): tumour growth inhibition observed | IC50 (MDA468; n=8): 0.04 µM

Cc1cc(-c2nc3ccccc3s2)ccc1NC(=O)C(C)N.Cl (centres unmarked) [Iw, 2-(4′-Amino-3′-methylphenyl)benzothiazole Alanyl Amide Hydrochloride Salt]
growth retardation of MCF-7 xenografts compared with (Iz) ([1]; 12.5 mg/kg given i.v.): greater extent of growth retardation | in vivo growth retardation of MCF-7 xenografts [1]: significant in vivo growth retardation | IC50 (MCF-7; n=8): 0.36 µM | in vivo growth retardation of MT-1 xenografts [2]: significant in vivo growth retardation | tumor growth inhibition in MT-1 xenografts [2]: moderate tumor growth inhibition | IC50 (MDA468; n=8): 0.34 µM | removal from plasma and reconversion to parent compound in vivo [3]: readily removed from such plasma and reconverted to their parent compound in vivo | stability in plasma in vitro [4]: stable

Cc1cc(-c2nc3ccccc3s2)ccc1NC(=O)C(N)CCCCN.Cl.Cl (centres unmarked) [Iz, 2-(4′-Amino-3′-methylphenyl)benzothiazole Lysyl Amide Dihydrochioride Salt]
body weight loss ([1]; prodrug, dose dependence): Dose-dependent body weight loss | in vivo growth retardation of MCF-7 xenografts [1]: significant in vivo growth retardation | IC50 (MCF-7; n=8): 0.08 µM | in vivo growth retardation of MT-1 xenografts [2]: significant in vivo growth retardation | tumor growth inhibition in MT-1 xenografts [2]: moderate tumor growth inhibition | IC50 (MDA468; n=8): 0.07 µM | removal from plasma and reconversion to parent compound in vivo [3]: readily removed from such plasma and reconverted to their parent compound in vivo | stability in plasma in vitro [4]: stable
